# In patent US20200197544A1, “JCV IMAGING METHODS AND COMPOSITIONS” (BIOGEN MA Inc., priority 2017, published 2020):
# Entries after “also recorded” stand apart in the source; their conditions may differ.
# System: JCV-infected human astrocytes
# Test: ^3H-FLT uptake in uninfected and JCV-infected human astrocytes (TK1 activity)
# Format: cell-based
# Conditions: JCV-infected astrocytes compared to uninfected astrocytes; uptake as a measure of TK1 activity
# Protocol: The activity of TK1 in uninfected and JCV-infected human astrocytes was determined by analyzing the cellular uptake of ^3H-FLT, a radiolabeled TK1 substrate.
compound,measurement,value
Cc1cn([C@H]2C[C@H](F)[C@@H](CO)O2)c(=O)[nH]c1=O [^3H-FLT],^3H-FLT uptake,"higher in JCV-infected astrocytes as compared to uninfected astrocytes; also recorded: elevated levels of TK1 activity, as determined by uptake of ^3H-FLT, compared to uninfected cells"
